Data on three molecules can be found in article PMC12833730, “Discovery of a First‐in‐Class Covalent Allosteric SHP1 Inhibitor with Immunotherapeutic Activity” (Angewandte Chemie (International Ed. in English), 2025).

The subject of one assay is IL-2 in Jurkat T cells. The assay is described as follows: IL-2 mRNA / production. In kind it is cell-based. The following applies: 20 µM. Here is the method:
(§1) Supernatants from lysed cells were reduced, treated with iodoacetamide to cap thiol residues, and digested by trypsin for bottom‐up proteomics analysis. […] LCK is the direct substrate of SHP1 and ERK1/2, and PLCγ is the downstream effector protein of LCK‐mediated TCR signaling. […] Statistical analyses were performed with Graphpad Prism software 10.4.2 through the one‐way ANOVA test using Turkey post‐hoc comparison. ****p < 0.0001 was considered significant.
(§2) To further confirm M029 cellular target engagement, we investigated the effect of M029 on T cell function. SHP1 plays a negative role in T cells, and deletion of SHP1 in T cells lowers the activation threshold and enhances antitumor immunity.^[ [30], [31], [32], [33] ^] Mechanistically, SHP1 attenuates T cell receptor (TCR) signaling via dephosphorylation of the lymphocyte‐specific protein tyrosine kinase LCK.^[ [31], [84], [85], [86] ^] T cell activation leads to increased expression and secretion of interleukin 2 (IL‐2)^[ [87] ^] while the removal of SHP1 in T cells enhances IL‐2 production, cell proliferation, and cytolysis capacity.^[ [30], [32] ^] Accordingly, we sought to assess the impact of targeting SHP1 with M029 on TCR‐LCK signaling and T cell activation. […] M029 also dose‐dependently promoted IL‐2 production (Figure 4c). […] These findings corroborate that the observed increase in LCK phosphorylation and its downstream signaling indeed resulted from SHP1 inhibition by M029.

Assay [1] relates to LCK, PLCγ and ERK1/2 phosphorylation in Jurkat T cells. The assay is described as follows: TCR-LCK signaling immunoblot. The format is cell-based. The settings on record: 20 µM. Here is the method:
as §1, §2
Immunoblotting: Cultured cells were lysed with ice-cold lysis buffer (50 mM Tris, pH 8.0, 150 mM NaCl, 10% Glycerol, 1% Triton-X-100) supplied with phosphatase inhibitor (Bimake) and protease inhibitor mixture (Roche Applied Science). Equal amounts of protein were resolved by SDS-PAGE, transferred to a nitrocellulose membrane, and subjected to immunoblotting. […]
A general note: Immunoblotting shows a protein as a band on a membrane.

In assay [2] the target is T1, SHP1 (Homo sapiens, UniProt P29350).
T1 construct: SHP1, residues 245-543; made in house; host or cells: E. coli BL21(DE3)
The assay is described as follows: IC50 after 10-min/60-min preincubation, DiFMUP phosphatase assay. The following applies: negative control analogs of M029. In kind it is biochemical. An excerpt: The PTP‐catalyzed reaction involves a nucleophilic attack by the conserved active site Cys side chain on the phosphorus atom of phosphotyrosine in the substrate.^[ [53] ^] As such, the PTPs could serve as prime targets for covalent inhibition. Previously described activity‐based probes or covalent ligands for the PTPs are either phosphotyrosine isosteres or thiol‐reactive compounds that covalently modify the active site residues (including the catalytic Cys) and lack sufficient isozyme specificity.^[ [54], [55], [56], [57], [58], [59], [60], [61] ^] Inspired by the resurgence in covalent inhibitors for difficult drug targets, we set out to discover covalent SHP1 inhibitors by screening for electrophilic fragments that bind covalently to SHP1. This strategy is increasingly utilized to identify novel ligands for a target of interest.^[ [47], [62], [63] ^] We assembled a library of 4600 Cys reactive molecules from the Enamine covalent fragment collections containing 49.0% acrylamide, 38.1% chloroacetamide, 5.15% chloromethylketone, 5.20% activated nitrile, 2.10% epoxide, and 0.53% disulfide (Figure S1A). We carried out a high‐throughput biochemical fragment screening of this curated commercially available library against the SHP1 catalytic domain (residues 245–543). Each fragment (500 µM) was incubated with SHP1 (500 nM) for 30 min at room temperature before diluting the reaction 5.5‐fold with 24.45 mM para‐nitrophenyl phosphate (pNPP) to measure the residual PTP activity. This concentration of substrate was chosen to out‐compete any remaining fragment to reduce the inactivation of SHP1 during the enzymatic hydrolysis of pNPP. After a 2‐min incubation at 25 °C, the reaction was quenched by the addition of 5N NaOH, and the production of para‐nitrophenol was determined by absorbance at 405 nm. This assay format afforded a Z’‐factor of 0.70 (Figure S1B), indicating a robust screen to reliably identify hit molecules. To enhance the probability of discovering covalent ligands with inherent preference for SHP1, we also counter‐screened the same library against SHP2, the closest homolog of SHP1, and two other widely studied PTPs, PTP1B and PTPN22 (also called LYP). […] Among these, 31 were repurchased based on their observed preference for SHP1 and structural diversity, 11 of which were confirmed as potential covalent inhibitors for SHP1 based on the time dependency of their half‐maximal inhibition concentration (IC50) values determined with a 10‐min and 60‐min preincubation time, respectively (Table 1).
To further confirm the time-dependent inhibition and determine the IC50 of acquired hits, repurchased compounds from Enamine were serially diluted in a 96-well plate, followed by the addition of proteins at 200 nM. After 10-minute and 60-minute preincubation, 2 µL of the mixture was transferred into 100 µM 6,8-Difluoro-4-Methylumbelliferyl Phosphate (DiFMUP, Invitrogen, cat# D6567) at a final volume of 200 µL. The reaction was allowed to proceed for 5 minutes and quenched by the addition of 40 µl of a 160 µM solution of bpV(Phen) (Sigma-Aldrich, cat# SML0889). The fluorescence signal was measured using a CLARIOstar Plus Microplate Spectrophotometer (BMG Labtech) using excitation and emission wavelengths of 340 nm and 450 nm, respectively. Data were fitted using Prism GraphPad 10.1.1.

The target in assay [3] is T1, SHP1. Put plainly: Vanadate protection jump-dilution experiment. The format is biochemical. The settings on record: 500 µM sodium orthovanadate, 30 min. Here is the method:
To further understand the mode of M029 action and ascertain whether M029 binds the SHP1 active site or a yet undefined novel site in SHP1, we performed a vanadate (VO4 ^3−) protection experiment. Vanadate is a reversible and competitive PTP inhibitor,^[ [76], [77] ^] and thus excessive vanadate would be expected to fully occupy the PTP active site and prevent covalent modifications of residues within the active site pocket. In this assay, SHP1 was co‐incubated with 30 µM M029 and 500 µM sodium orthovanadate or vehicle control for 30 min. The SHP1‐inhibitor complex was then rapidly diluted 100‐fold into a buffered solution containing 10 mM pNPP, and immediately, the absorbance at 405 nm was monitored over time to determine the remaining phosphatase activity.

T1 sequence (P29350 245-543): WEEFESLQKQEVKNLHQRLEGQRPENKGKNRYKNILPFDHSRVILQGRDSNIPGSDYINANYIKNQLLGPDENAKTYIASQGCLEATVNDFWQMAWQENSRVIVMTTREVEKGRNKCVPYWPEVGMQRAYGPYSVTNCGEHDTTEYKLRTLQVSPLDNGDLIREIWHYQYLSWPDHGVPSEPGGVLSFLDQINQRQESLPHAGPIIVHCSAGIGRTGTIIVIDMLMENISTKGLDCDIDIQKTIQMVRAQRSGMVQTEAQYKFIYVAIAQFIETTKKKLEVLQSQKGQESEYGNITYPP

In the case of `CC(=O)Nc1ccc(S(=O)(=O)Nc2sccc2C#N)cc1` [M054, N-(4-(N-(3-cyanothiophen-2-yl)sulfamoyl)phenyl)acetamide], in the assay with IL-2 in Jurkat T cells, the IL-2 secretion result is recorded as “neither impacted”. Also, the “phosphorylation levels of LCK, PLCγ, and ERK1/2” value in assay [1] is listed as “neither impacted”. On SHP1 [2], the “SHP1 inhibitory activity (in words)” value is reported as “loses the ability to inactivate SHP1”.

`O=C(CCl)Nc1ccccc1` [PhClAc, reference compound]: in the assay on IL-2 in Jurkat T cells, the IL-2 secretion result is “neither impacted”. Also, in assay [1], the “phosphorylation levels of LCK, PLCγ, and ERK1/2” value was “neither impacted”. For the same molecule, the “SHP1 inhibitory activity (in words)” value at SHP1 [2] is “inactive against SHP1”.

Turning to `[Na+].[Na+].[Na+].[O]=[V]([O-])([O-])[O-]` [sodium orthovanadate, reference compound], the “SHP1 activity after 100-fold dilution of vanadate complex” value on SHP1 [3] is on record as “fully recovered activity”.
